# Laboratory results published in patent US7217729B2, “Substituted indoles, process for the production thereof and use thereof for combatting pain” (Grunenthal GmbH, priority 2001, dated 2007).
# Test system: Male NMRI mice
# Assay: phenylquinone-induced writhing in mice (analgesic testing by writhing test)
# Type: in vivo
# Details: 10 mg/kg i.v., phenylquinone i.p. 10 minutes after compound, writhing counted 5–20 minutes after phenylquinone
# Procedure: The investigation into the analgesic efficacy of the compounds according to the invention was performed by phenylquinone-induced writhing in mice, modified after I. C. Hendershot, J. Forsaith, J. Pharmacol. Exp. There. 125, 237240 (1959). The corresponding literature description is hereby introduced as a reference and is deemed to be part of the disclosure.
# Male NMRI mice weighing from 25–30 g were used for this purpose. Groups of 10 animals per compound dose received, 10 minutes after intravenous administration of the compounds tested, 0.3 ml/mouse of a 0.02% aqueous solution of phenylquinone (phenylbenzoquinone, Sigma, Deisenhofen; solution prepared with addition of 5% of ethanol and stored in a water bath at 45° C.) administered intraperitoneally. The animals were then placed individually in observation cages. A push button counter was used to record the number of pain-induced stretching movements (writhing reactions=straightening of the torso with stretching of the rear extremities) for 5–20 minutes after phenylquinone administration. The control was provided by animals which received only physiological common salt solution with phenylquinone.
# The compounds according to the invention were tested at the standard dosage of 10 mg/kg. The percentage inhibition (% inhibition) of the writhing reactions by a compound was calculated according to the following formula: […]
# Analgesic Testing by Writhing Test in Mice
# The in-depth investigation into the analgesic efficacy of the compounds according to the invention was performed using phenylquinone-induced writhing in mice, as described above.
row,Compound,% inhibition of writhing reactions [%]
1,"5-Chloro-3-{[3′-(N,N-dimethylaminomethyl)-4′-hydroxy-4′-(3″-methoxyphenyl)-cyclohexylamino]-methyl}-1H-indole 2-carboxylic acid ester [Compound 1]",48
2,"CCOC(=O)c1[nH]c2cc(Cl)cc(Cl)c2c1CNC1CCC(O)(c2cccc(OC)c2)C(CN(C)C)C1 (stereo not shown) [Compound 2, 4,6-Dichloro-3-{[3′-(N,N-dimethylaminomethyl)-4′-hydroxy-4′-(3″-methoxyphenyl)-cyclohexylamino]-methyl}-1H-indole 2-carboxylic acid ethyl ester]",97
3,"COc1cccc(C2(O)CCC(NCc3c(C(=O)O)[nH]c4cc(Cl)cc(Cl)c34)CC2CN(C)C)c1 (stereo not shown) [Compound 3, 4,6-Dichloro-3-{[3′-(N,N-dimethylaminomethyl)-4′-hydroxy-4′-(3″-methoxyphenyl)-cyclohexylamino]-methyl}-1H-indole 2-carboxylic acid]",72
4,CCOC(=O)c1c(CNC2CCC(O)(c3cccc(OC)c3)C(CN(C)C)C2)c2c(Cl)cc(Cl)cc2n1C(=O)OC(C)(C)C (stereo not shown) [Compound 4],100
